Measurements from patent USRE47404E1, “Viral hepatitis treatment” (priority 2006, dated 2019).
Read-outs that look alike come from different tables or passages of the source.

How the values were obtained:
[1] = tested on: HCV replication in AVA5 replicon cell line (subgenomic construct of genotype 1b); test: microbe, parasite or virus in culture; conditions: for S.I. = CC50/EC50: AVA5 cell cultures (Table 2)
Protocol: (§1) Antiviral activity of nitazoxanide, tizoxanide, interferon α, ribavirin and 2′-C-methyl cytidine was assessed in five different HCV replicon cell lines: (1) AVA5, a subgenomic construct of genotype 1b (Blight et al., 2000, Science 290:1972-1974); (2) H/FL-Neo, a genotype 1a full length construct (Blight et al., 2003, Journal of Virology 77:3181-3190); (3) JWT, a subgenomic construct of genotype 1b (Pfeiffer and Kirkegaard, 2005, Journal of Virology, 79:2346-2355); (4) 4-3-10, a subgenomic construct of genotype 1b, developed by a protocol that involved serial passage of JWT cells in 100 μM for one month followed by 400 μM ribavirin for two weeks (Pfeiffer and Kirkegaard, 2005, Journal of Virology, 79:2346-2355); and (5) RP7, a subgenomic construct of genotype 1b (Elazar et al., 2003, Journal of Virology 77:6055-6061).
(§2) Antiviral activity for each test compound was determined as previously described (Okuse et al., 2005, Antiviral Research 65:23-34). Briefly, replicon cell lines were maintained as sub-confluent cultures on 96-well plates. Compounds were added daily for three days in fresh medium. Twenty-four hours after the last dose of compound, antiviral activity was determined by blot hybridization analysis of intracellular HCV RNA, and cytotoxicity was assessed by neutral red dye uptake. EC50, EC90, CC50 and selectivity index were calculated for each compound tested in a replicon cell line. […] Selectivity index=CC50 divided by EC50. EC50, EC90 and CC50 values (±standard deviations [S.D.]) were calculated by linear regression analysis using data combined from all treated cultures.
(§3) Nitazoxanide and tizoxanide were provided by Romark Laboratories, L.C. (Tampa, Fla. USA). […] Ribavirin was purchased from Sigma-Aldrich (St. Louis, Mo. USA). 2′-C-methyl cytidine (Pierra, et al. 2005, Nucleosides Nucleotides Nucleic Acids, 24:767-770) was purchased from Moraveck Biochemicals, Inc. (La Brea, Calif. USA). […] Ribavirin, nitazoxanide, tizoxanide and 2′-C-methyl cytidine were solubilized in 100% tissue culture grade DMSO (Sigma). […] Daily aliquots of test compounds were made from the stock solutions in individual tubes and stored at the appropriate temperatures. On each day of treatment, daily aliquots of the test compounds were suspended into culture medium at room temperature, and immediately added to the cell cultures, thereby subjecting each aliquot of test compound to the same, limited, number of freeze-thaw cycles.
Analyses of interactions between compounds used in combination treatments were performed using Calcusyn™ software (Biosoft, Cambridge, UK).

[2] = tested on: HCV replication in RP7 replicon cell line (subgenomic construct of genotype 1b); test: microbe, parasite or virus in culture; assay type: cell-based, hepatitis C virus
Protocol: as §1, §2, §3
(§4) To evaluate the effect of interferon alpha following pre-treatment with nitazoxanide or tizoxanide, a parental replicon-containing cell line (RP-7) was serially passaged in increasing concentrations of nitazoxanide or tizoxanide. Anti-HCV activity of interferon alpha-2b was determined using the parental cell line and using the cell lines obtained after passage in nitazoxanide or tizoxanide. Anti-HCV activity was determined by the methods described above.
(§5) The parental replicon-containing cell line was established by electroporation of RNA transcribed in vitro off of the Sca-I-linearized Bart 79I plasmid into Huh-7 cells (Elazar et al., 2003). Bart79I encodes for a second-generation high-efficiency bi-cistronic sub-genomic replicon of genotype 1b containing a single adaptive mutation (S1179I) in the NS5A gene, and the neomycinphosphotransferase gene in the first cistron. The electroporated cells were plated along with naïve Huh-7 feeder cells and grown in medium—DMEM (4.5 g/l glucose, L-glutamine and sodium pyruvate—Mediatech 10-013-CV), 10% fetal bovine serum, 1% Penicillin-streptomycin, 1% L-glutamine (final concentration 2 mM), 1×MEM Non-Essential Amino Acids (100×) (Invitrogen)—and 1 mg/ml G418. […] One of the resulting colonies was isolated, expanded, passaged in 700 μg/ml G418, and termed RP-7.

[3] = Cytotoxicity, neutral red dye uptake, RP7; assay type: cell-based; conditions: human
Protocol: (§6) Selectivity index=CC50 divided by EC50.
as §5

[4] = tested on: HCV replication in five HCV genotype 1-derived replicon cell lines; test: Median over the five HCV replicon cell lines; assay type: cell-based, hepatitis C virus; conditions: median of the replicon cell lines; for EC50 / EC90: Hepatitis C virus
Protocol: as §1, §2

[5] = tested on: HCV replication in 4-3-10 replicon cell line (subgenomic genotype 1b, JWT cells passaged in ribavirin); test: microbe, parasite or virus in culture; assay type: cell-based, hepatitis C virus
Protocol: as §1, §2, §3

[6] = tested on: HCV replication in JWT replicon cell line (subgenomic construct of genotype 1b); test: microbe, parasite or virus in culture; assay type: cell-based, hepatitis C virus
Protocol: as §1, §2, §3

[7] = tested on: HCV replication in H/FL-Neo replicon cell line (genotype 1a full length construct); test: microbe, parasite or virus in culture; assay type: cell-based, hepatitis C virus
Protocol: as §1, §2, §3

HCV replication = test: Effect of nitazoxanide pre-treatment and treatment duration (3 or 6 days) on antiviral activity in replicon cultures; assay type: cell-based, hepatitis C virus; conditions: for EC50 / EC90: Hepatitis C virus; for EC50, IFNα-2b / EC90, IFNα-2b: expressed as IFNα-2b concentration
Protocol: as §2, with “Compounds were added daily for three days in fresh medium.” left out
Antiviral activity and cytotoxicity was determined 24 hours after the end of each respective treatment as described previously.

[8] = Cytotoxicity, neutral red dye uptake, AVA5; assay type: cell-based; conditions: human
Protocol: (§7) Briefly, replicon cell lines were maintained as sub-confluent cultures on 96-well plates. Compounds were added daily for three days in fresh medium. Twenty-four hours after the last dose of compound, antiviral activity was determined by blot hybridization analysis of intracellular HCV RNA, and cytotoxicity was assessed by neutral red dye uptake. EC50, EC90, CC50 and selectivity index were calculated for each compound tested in a replicon cell line. EC50=drug concentration producing a 50% reduction of intracellular HCV RNA relative to the average levels in untreated cultures. EC90=drug concentration producing a 90% reduction of intracellular HCV RNA relative to the average levels in untreated cultures. CC50=drug concentration producing a 50% reduction of neutral red dye uptake relative to the average levels in untreated cultures. Selectivity index=CC50 divided by EC50. EC50, EC90 and CC50 values (±standard deviations [S.D.]) were calculated by linear regression analysis using data combined from all treated cultures.

AVA5 cells = test: Cytotoxicity, neutral red dye uptake, AVA5; assay type: cell-based; conditions: AVA5 cell cultures, mono and combination treatments (Table 2)
Protocol: as §7

[9] = Cytotoxicity, neutral red dye uptake, H/FL-Neo; assay type: cell-based; conditions: human
Protocol: as §7

[10] = Cytotoxicity, neutral red dye uptake, JWT; assay type: cell-based; conditions: human
Description: as §6

[11] = Cytotoxicity, neutral red dye uptake, 4-3-10; assay type: cell-based; conditions: human
Description: as §6

[12] = tested on: HCV replication in RP7 cells passaged in nitazoxanide; test: HCV replicon antiviral assay, RP7 cells passaged in nitazoxanide; assay type: cell-based, hepatitis C virus; conditions: cell lines passaged in nitazoxanide or tizoxanide
Protocol: as §2
as §4, with “above. […]” for “above.”

[13] = Hepatitis C virus, GETYPE1B, Ava5, AVA5 cell cultures, mono and combination treatments (Table 2)
[14] = Hepatitis C virus, read-out: EC50
[15] = Hepatitis C virus, read-out: EC90
[16] = AVA5 cell cultures, mono and combination treatments (Table 2)
[17] = AVA5 (Table 2), values for IFNα-2b expressed in IU/mL
[18] = 4-3-10, interferon α-2b in IU/ml

| Compound | S.I. (Selectivity Index) = CC50/EC50 ([1]; AVA5) | S.I. = CC50/EC50 [1] | EC50 ([1]; Hepatitis C virus, Ava5, 72 h) | EC90 ([1]; Hepatitis C virus, Ava5, AVA5) | EC90 [1, 13] | S.I. (Selectivity Index) = CC50/EC50 [2] | EC50 [2, 14] | EC90 [2, 15] | CC50 at 3 days [3] | EC50 [4] | EC90 [4] | S.I. (Selectivity Index) = CC50/EC50 ([5]; 4-3-10) | EC50 ([5]; Hepatitis C virus) | EC90 ([5]; Hepatitis C virus) | S.I. (Selectivity Index) = CC50/EC50 [6] | EC50 [6, 14] | EC90 [6, 15] | S.I. (Selectivity Index) = CC50/EC50 [7] | EC50 [7, 14] | EC90 [7, 15] | also measured |
| --- | --- | --- | --- | --- | --- | --- | --- | --- | --- | --- | --- | --- | --- | --- | --- | --- | --- | --- | --- | --- | --- |
| C[C@@]1(O)[C@H](O)[C@@H](CO)O[C@H]1n1ccc(N)nc1=O [2′-C-methyl cytidine] | >143 | >188 | 2100 ± 200 nM | 8100 ± 700 nM | 8300 ± 700 nM | >150 | 2000 ± 100 nM | 9 ± 0.6 µM | > 300 µM | 2100 nM | 8.1 µM | >143 | 2100 ± 100 nM | 8000 ± 900 nM | >136 | 2200 ± 100 nM | 8.2 ± 0.7 µM | >556 | 1800 ± 200 nM | 8100 ± 800 nM | EC50 (HCV replication; 72 h, duration 3 days, expressed as 2′CMeC concentration, read-out: EC50, 2′CMeC): 1700 ± 200 nM; EC90 (HCV replication; 72 h, duration 3 days, expressed as 2′CMeC concentration, read-out: EC90, 2′CMeC): 6.2 ± 0.5 µM; EC50 (HCV replication; 144 h, duration 6 days, expressed as 2′CMeC concentration, read-out: EC50, 2′CMeC): 1300 ± 200 nM; EC90 (HCV replication; 144 h, duration 6 days, expressed as 2′CMeC concentration, read-out: EC90, 2′CMeC): 5.8 ± 0.9 µM; CC50 at 3 days ([8]; AVA5 HCV replicon cells): > 300 µM; CC50 (AVA5 cells): > 300 µM; CC50 at 3 days [9]: > 1000 µM |
| CC(=O)Oc1ccccc1C(=O)Nc1ncc([N+](=O)[O-])s1 [Nitazoxanide, nitazoxanide] | 300 | 181 | 130 ± 20 nM | 1000 ± 200 nM | 930 ± 110 nM | 238 | 160 ± 10 nM | 1.2 ± 0.1 µM | 38 ± 0.8 µM | 130 nM | 1 µM | 340 | 100 ± 30 nM | 870 ± 160 nM | 354 | 110 ± 10 nM | 1 ± 0.2 µM | 149 | 330 ± 50 nM | 1100 ± 100 nM | CC50 at 3 days ([10]; JWT, read-out: CC50): 39 ± 1 µM; CC50 at 3 days [11]: 34 ± 0.4 µM; EC50 (HCV replication; 72 h, duration 3 days, expressed as NTZ concentration, read-out: EC50, NTZ): 220 ± 30 nM; EC90 (HCV replication; 72 h, duration 3 days, expressed as NTZ concentration, read-out: EC90, NTZ): 1 ± 0.1 µM; EC50 (HCV replication; 144 h, duration 6 days, expressed as NTZ concentration, read-out: EC50, NTZ): 200 ± 20 nM; EC90 (HCV replication; 144 h, duration 6 days, expressed as NTZ concentration, read-out: EC90, NTZ): 0.92 ± 0.1 µM; CC50 at 3 days ([8]; AVA5): 39 ± 3.9 µM; CC50 at 3 days [8, 16]: 38 ± 1.8 µM; CC50 at 3 days [9]: 49 ± 1.5 µM |
| NC(=O)c1ncn([C@@H]2O[C@H](CO)[C@@H](O)[C@H]2O)n1 [Ribavirin] | 1.2 |  | 70000 ± 500 nM | 220000 ± 34000 nM |  | 1.2 | 69000 ± 4400 nM | 122 ± 13 µM | 77 ± 4.9 µM | 69000 nM | 122 µM |  |  |  | 3.9 | 23000 ± 2200 nM | 62 ± 1.7 µM |  |  |  | CC50 at 3 days [10]: 89 ± 7.5 µM; CC50 at 3 days ([8]; AVA5 HCV replicon cells): 84 ± 4.7 µM |
| O=C(Nc1ncc([N+](=O)[O-])s1)c1ccccc1O [Tizoxanide, tizoxanide] | 208 | 100 | 120 ± 10 nM | 770 ± 100 nM | 810 ± 920 nM | 167 | 150 ± 10 nM | 0.94 ± 0.1 µM | 25 ± 1 µM | 150 nM | 0.77 µM | 191 | 110 ± 50 nM | 550 ± 80 nM | 150 | 160 ± 20 nM | 0.76 ± 0.03 µM | 17 | 250 ± 30 nM | 1000 ± 100 nM | CC50 at 3 days ([10]; JWT, read-out: CC50): 24 ± 2.9 µM; CC50 at 3 days [11]: 21 ± 1.1 µM; CC50 at 3 days ([8]; AVA5): 25 ± 2.8 µM; CC50 at 3 days [8, 16]: 15 ± 1.2 µM; CC50 at 3 days [9]: 4.2 ± 0.2 µM |
| Interferon α-2b |  |  |  |  |  |  |  |  |  |  |  |  |  |  |  |  |  |  |  |  | EC50 [1, 17]: 1.9 ± 0.22 IU/mL; EC90 [1, 17]: 8.9 ± 0.92 IU/mL; EC50 ([1]; AVA5, interferon α-2b in IU/ml): 1.5 ± 0.2 IU/ml; EC90 ([1]; AVA5, interferon α-2b in IU/ml): 8.2 ± 0.8 IU/ml; EC50 ([2]; interferon α-2b in IU/ml): 0.41 ± 0.01 IU/ml; EC90 ([2]; interferon α-2b in IU/ml): 3.6 ± 0.2 IU/ml; Resistance after serial passage of the parental cell line in nitazoxanide or tizoxanide [12]: did not induce resistance; Median EC50 ([4]; interferon α-2b): 0.86 IU/ml; Median EC90 ([4]; interferon α-2b): 5.7 IU/ml; EC50 [5, 18]: 0.86 ± 0.06 IU/ml; EC90 [5, 18]: 5.7 ± 0.4 IU/ml; EC50 ([6]; interferon α-2b in IU/ml): 0.77 ± 0.03 IU/ml; EC90 ([6]; interferon α-2b in IU/ml): 2.6 ± 0.2 IU/ml; EC50 ([7]; interferon α-2b in IU/ml): 2.1 ± 0.2 IU/ml; EC90 ([7]; interferon α-2b in IU/ml): 9.4 ± 0.9 IU/ml; EC50, IFNα-2b (HCV replication; duration 3 days): 1.9 ± 0.3 IU/mL; EC90, IFNα-2b (HCV replication; duration 3 days): 8.3 ± 0.9 IU/mL; EC50, IFNα-2b (HCV replication; duration 6 days): 1.7 ± 0.2 IU/mL; EC90, IFNα-2b (HCV replication; duration 6 days): 7.8 ± 0.8 IU/mL |
